In the PolyMetriX glass transition set:
± gives the standard deviation of the reports.

In the case of `*OC(COC(=O)c1cccc(C(*)=O)c1)COc1ccc(/N=N/c2ccc(C#N)cc2)cc1` (repeat unit), the glass transition temperature is reported as 119.00 °C.
`*CC(*)(C)C(=O)OCCCCCCOc1ccc(C(=O)Oc2ccc(/N=N/c3ccc(Br)cc3)c3ccccc23)cc1` (repeat unit) showed a glass transition temperature of 46.00 °C.
For `*c1ccc(Oc2ccc(Sc3ccc(Oc4ccc(N5C(=O)c6ccc(Oc7ccc(Oc8ccc(Oc9ccc%10c(c9)C(=O)N(*)C%10=O)cc8)cc7)cc6C5=O)cc4)cc3)cc2)cc1` (repeat unit), the glass transition temperature was 194.00 °C.
Work on `*CC(*)c1ccc(COC(C)CC)cc1` (repeat unit) yielded a glass transition temperature of 40.00 °C.
Compound `*Oc1cccc(OC(=O)c2cc(OCCCCC)cc(C(*)=O)c2)c1` (repeat unit) has a glass transition temperature of 96.00 °C.
For `*CCN(CCOC(=O)Nc1ccc(C)c(NC(=O)O*)c1)c1ccc(/N=N/c2ccc(/N=N/c3cc(OC)c(/N=N/c4ccc([N+](=O)[O-])cc4)cc3OC)c(C)c2)cc1` (repeat unit), the glass transition temperature was 148.00 °C.
In the case of `*C(=O)c1ccc2c(c1)C(=O)N(c1cc(N3C(=O)c4ccc(*)cc4C3=O)cc(C(F)(F)F)c1)C2=O` (repeat unit), the glass transition temperature is reported as 294.8 ± 1.1 °C.
With `*c1ccc(N[Se]Nc2ccc(S(*)(=O)=O)cc2)cc1` (repeat unit) the glass transition temperature was 62.00 °C.
`*c1ccc(Oc2ccc3ccc(Oc4ccc(N5C(=O)CC(=O)N(*)C5=S)cc4)cc3c2)cc1` (repeat unit) showed a glass transition temperature of 151.50 °C.
`*CCN(CCOC(=O)Nc1ccc(C)c(NC(=O)O*)c1)c1ccc(/N=N/c2ccc([N+](=O)[O-])cc2C)cc1` (repeat unit) gave a glass transition temperature of 137.00 °C.
Work on `*O[Si](*)(C)CCCOc1ccc(C(=O)Oc2ccc(-c3ccc(OC(=O)c4ccc(OCC)cc4)cc3)cc2)cc1` (repeat unit) yielded a glass transition temperature of 74.60 °C.
With `*Oc1ccc(C(=O)c2cccc(NC(=O)CCCCCCCCC(=O)Nc3ccc(C(=O)c4ccc(*)cc4)cc3)c2)cc1` (repeat unit) the glass transition temperature was 148.00 °C.
Work on `*C(=O)Nc1ccc(Oc2ccc(C(c3ccc(Oc4ccc(NC(=O)c5ccc6c(c5)C(=O)N(c5ccc(Oc7ccc(C8(c9ccc(Oc%10ccc(N%11C(=O)c%12ccc(*)cc%12C%11=O)cc%10)cc9)CC9CC8C8CCCC98)cc7)cc5)C6=O)cc4)cc3)(C(F)(F)F)C(F)(F)F)cc2)cc1` (repeat unit) yielded a glass transition temperature of 254.00 °C.
For `*CC(F)(F)C(F)(F)C(F)(F)COC(=O)c1cccc(C(F)(F)C(F)(F)C(F)(F)C(F)(F)C(F)(F)c2cccc(C(=O)O*)c2)c1` (repeat unit), the glass transition temperature was 29.00 °C.
Compound `*CC(*)c1ccccc1COCCCCCCCC` (repeat unit) has a glass transition temperature of 13.00 °C.
`*C(=O)Nc1ccc(C(c2ccc(NC(=O)c3ccc4c(c3)C(=O)N(c3c(C)cc(-c5cc(C)c(N6C(=O)c7ccc(*)cc7C6=O)c(C)c5)cc3C)C4=O)cc2)(C(F)(F)F)C(F)(F)F)cc1` (repeat unit) gave a glass transition temperature of 318.00 °C.
`*CCC1C(=O)N(CC)C(=O)C1*` (repeat unit) showed a glass transition temperature of 109.20 °C.
With `*CC(*)CCC` (repeat unit) [Poly(propylethylene)] the glass transition temperature was -35 ± 46 °C.
For `*c1ccc(Nc2cccc(Nc3ccc(S(*)(=O)=O)cc3)c2)cc1` (repeat unit), the glass transition temperature was 145.00 °C.
Work on `*Oc1ccc(Oc2ccc(Oc3ccc(S(=O)(=O)c4ccc(*)cc4)cc3)cc2)cc1` (repeat unit) yielded a glass transition temperature of 192.00 °C.
In the case of `*c1ccc(Oc2ccc3ccc(Oc4ccc(-c5nc(*)nc(-c6ccccc6)n5)cc4)cc3c2)cc1` (repeat unit), the glass transition temperature is reported as 255.00 °C.
`*O[Si](*)(C)CCCCCCOc1ccc(C(=O)Oc2ccc(C#N)cc2C)cc1` (repeat unit) showed a glass transition temperature of 45.00 °C.
`*c1ccc2c(c1)C(=O)N(c1ccc(C(=O)Nc3ccc(Oc4ccccc4Oc4ccc(NC(=O)c5ccc(N6C(=O)c7ccc(C(*)(C(F)(F)F)C(F)(F)F)cc7C6=O)cc5)cc4)cc3)cc1)C2=O` (repeat unit) showed a glass transition temperature of 281.00 °C.
In the case of `*C(=O)c1ccc2c(c1)C(=O)N(c1ccc(C(=O)c3ccc(N4C(=O)c5ccc(*)cc5C4=O)cc3)cc1)C2=O` (repeat unit), the glass transition temperature is reported as 293.00 ± 4.9 °C.
With `*c1ccc(Oc2ccc(C3(c4ccc(Oc5ccc(-c6nc(-c7ccccn7)nnc6*)cc5)cc4)c4ccccc4-c4ccccc43)cc2)cc1` (repeat unit) the glass transition temperature was 277.00 °C.
`*c1ccc2c(c1)C(=O)N(c1cc(C(c3ccc(OC(=O)C45CC6CC(CC(C6)C4)C5)c(N4C(=O)c5ccc(C(*)(C(F)(F)F)C(F)(F)F)cc5C4=O)c3)(C(F)(F)F)C(F)(F)F)ccc1OC(=O)C13CC4CC(CC(C4)C1)C3)C2=O` (repeat unit) gave a glass transition temperature of 305.00 °C.
In the case of `*Oc1cccc(Oc2ccc(-c3ccc(*)cc3)cc2)c1C#N` (repeat unit), the glass transition temperature is reported as 210.00 °C.
`*ON(C(F)(F)F)C(F)(F)C(*)(F)F` (repeat unit) gave a glass transition temperature of -46.00 °C.
Compound `*CCCCOC(=O)NCCCCCCNC(=O)O*` (repeat unit) has a glass transition temperature of 33.50 °C.
`*CCC1CC(*)C2C3CCC(C3)C12` (repeat unit) gave a glass transition temperature of 164.00 °C.
For `*CCCCCC(=O)Oc1ccc(OC(=O)c2ccc3c(c2)C(=O)N(*)C3=O)cc1` (repeat unit), the glass transition temperature was 89.00 °C.
In the case of `*SSc1ccc(/N=C/Nc2ccc(*)cc2)cc1` (repeat unit), the glass transition temperature is reported as 98.00 °C.
`*CC(*)CCCCCCCCCCCC` (repeat unit) gave a glass transition temperature of 10.00 °C.
In the case of `*c1ccc(C(=O)c2cccc(-n3c(=O)c4cc5c(=O)n(*)c(=O)c5cc4c3=O)c2)cc1` (repeat unit), the glass transition temperature is reported as 340.00 ± 11 °C.
`*CC(CS(=O)(=O)CCCC)O*` (repeat unit) showed a glass transition temperature of 37.00 °C.
In the case of `*Nc1ccc(Cc2ccc(NC(=O)c3cc(NC(=O)CCCCCN4C(=O)c5ccccc5C4=O)cc(C(*)=O)c3)cc2)cc1` (repeat unit), the glass transition temperature is reported as 195.00 °C.
Compound `*c1ccc(-c2nc3cc(Oc4ccc(NC(=O)c5cc(C(=O)Nc6ccc(Oc7ccc8nc(-c9ccccc9)c(-c9ccc(N%10C(=O)c%11ccc%12c%13c(ccc(c%11%13)C%10=O)C(=O)N(*)C%12=O)cc9)nc8c7)cc6)cc(N6C(=O)c7c(Cl)c(Cl)c(Cl)c(Cl)c7C6=O)c5)cc4)ccc3nc2-c2ccccc2)cc1` (repeat unit) has a glass transition temperature of 345.00 °C.
Compound `*c1cccc(P(=O)(c2ccccc2)c2cccc(N3C(=O)c4ccc(NC(=O)OCCOc5c(Br)cc(C(C)(C)c6cc(Br)c(OCCOC(=O)Nc7ccc8c(c7)C(=O)N(*)C8=O)c(Br)c6)cc5Br)cc4C3=O)c2)c1` (repeat unit) has a glass transition temperature of 201.00 °C.
For `*CC(=O)NCCCCCCNC(=O)CCc1ccc(O*)cc1` (repeat unit), the glass transition temperature was 72.00 °C.
`*c1ccc(Oc2ccc(N3C(=O)c4ccc(Oc5cccc(Oc6ccc7c(c6)C(=O)N(*)C7=O)c5)cc4C3=O)cc2)cc1` (repeat unit) gave a glass transition temperature of 209.00 °C.
`*CC(CCCC)O*` (repeat unit) showed a glass transition temperature of -69.00 °C.
Work on `*/C=C/c1sc(-c2ccc(-c3sc(/C=C/C4=CC(=C(C#N)C#N)C=C(*)O4)c(CCCCCC)c3CCCCCC)s2)c(CCCCCC)c1CCCCCC` (repeat unit) yielded a glass transition temperature of 114.00 °C.
`*c1ccc(Oc2cccc(Oc3ccc(N4C(=O)CC(=O)N(*)C4=S)cc3)c2)cc1` (repeat unit) gave a glass transition temperature of 145.00 °C.
With `*c1ccc(Cc2ccc(N3C(=O)c4ccc([Si](C)(C)c5ccc([Si](C)(C)c6ccc7c(c6)C(=O)N(*)C7=O)cc5)cc4C3=O)cc2)cc1` (repeat unit) the glass transition temperature was 295.00 °C.
`*Oc1ccc(OC(=O)c2ccc([Si](C)(C)c3ccc(C(*)=O)cc3)cc2)cc1` (repeat unit) gave a glass transition temperature of 176.00 °C.
With `*Cc1ccc(CSSS*)cc1` (repeat unit) the glass transition temperature was 8.00 °C.
With `*c1cccc(NC(=O)c2ccc(OCCOCCOc3ccc(C(=O)Nc4ccc5[nH]c(*)nc5c4)cc3)cc2)c1` (repeat unit) the glass transition temperature was 215.00 °C.
`*CCCCOC(=O)c1ccc2cc(C(=O)O*)ccc2c1` (repeat unit) gave a glass transition temperature of 66.00 °C.
Work on `*CCCOc1ccc(OCCCc2nnc(-c3ccc(-c4nnc(*)o4)cc3)o2)c(C)c1` (repeat unit) yielded a glass transition temperature of 112.00 °C.
`*Oc1ccc(Oc2ccc(C(=O)Nc3ccc(Oc4ccc(NC(=O)c5ccc(*)cc5)cc4)cc3)cc2)cc1-c1ccccc1` (repeat unit) showed a glass transition temperature of 219.00 °C.
Compound `*C(=O)c1ccc2c(c1)C(=O)N(c1cccc(NC(=O)c3cccc(C(=O)Nc4cccc(N5C(=O)c6ccc(*)cc6C5=O)c4)c3)c1)C2=O` (repeat unit) has a glass transition temperature of 204.00 °C.
For `*c1ccc2c(c1)C(=O)N(c1cc(Oc3c(C)cc(-c4cc(C)c(Oc5cc(N6C(=O)c7ccc(C(*)(C(F)(F)F)C(F)(F)F)cc7C6=O)cc(C(F)(F)F)c5)c(C)c4)cc3C)cc(C(F)(F)F)c1)C2=O` (repeat unit), the glass transition temperature was 264.80 °C.
`*c1ccc(-c2ccc(-c3ccc(-c4cc(-c5ccccc5)c5cc(Oc6ccc7nc(*)cc(-c8ccccc8)c7c6)ccc5n4)cc3)cc2)cc1` (repeat unit) showed a glass transition temperature of 300.00 °C.
For `*CCOCC(=O)O*` (repeat unit), the glass transition temperature was -12.60 °C.
With `*NC(CCC(=O)OCCC)C(*)=O` (repeat unit) the glass transition temperature was -10.00 °C.
`*c1ccc2c(c1)C(CCCCCC)(CCCCCC)c1cc(-c3ccc4c(c3)C(CC3=NC(Cc5ccccc5)CO3)(CC3=NC(Cc5ccccc5)CO3)c3cc(*)ccc3-4)ccc1-2` (repeat unit) gave a glass transition temperature of 114.00 °C.
For `*CC(*)(C)C(=O)OC1CC(C)CCC1C(C)C` (repeat unit), the glass transition temperature was 147.00 °C.
In the case of `*c1cccc(C(=O)Nc2ccc(Cc3ccc(N4C(=O)c5ccc(S(=O)(=O)c6ccc7c(c6)C(=O)N(c6ccc(Cc8ccc(NC(=O)c9cccc(-c%10nc%11cc(-c%12ccc%13[nH]c(*)nc%13c%12)ccc%11[nH]%10)c9)cc8)cc6)C7=O)cc5C4=O)cc3)cc2)c1` (repeat unit), the glass transition temperature is reported as 270.00 °C.
Work on `*Oc1ccc(Oc2ccc(S(=O)(=O)c3ccc(Oc4ccc(C(=O)c5ccc(*)cc5)cc4)cc3)cc2)cc1` (repeat unit) yielded a glass transition temperature of 186.00 °C.
With `*CC1(C)CC(*)(C)C(=O)OC1=O` (repeat unit) the glass transition temperature was 144.00 °C.
With `*Oc1ccc(Oc2ccc(C(=O)c3ccc(C(=O)c4ccc(*)cc4)c4ccccc34)cc2)cc1` (repeat unit) the glass transition temperature was 200.03 °C.
In the case of `*CC(*)C(=O)OCCCCOc1ccc(-c2ccc(C#N)cc2)cc1` (repeat unit), the glass transition temperature is reported as 30.00 °C.
